From patent US6617423B1, “Superpotent calcitonin analogs having greatly increased hypocalcemic action in vivo” (Fraunhofer-Gesellschaft zur Forderung der Angewandten …, priority 1997, dated 2003)

Tested on: BALB/c mice
Assay: hypocalcemic test in vivo in BALB/c mice
Details: for biological activity as percentage activity of the hypocalcemic effect maximally achievable in this test: 100% = effect achieved by 2 μg of hCt, BALB/c mice
Experimental: The biological activity of the analogs was determined by means of a hypocalcemic test in vivo in BALB/c mice.
The biological activity is shown as a percentage [%] activity of the hypocalcemic effect maximally achievable in this test, as is achieved by 2 μg of hCt.

[1] = concentration of the peptides 0.01 ng/ml
[2] = concentration of the peptides 0.1 ng/ml
[3] = concentration of the peptides 1 ng/ml
[4] = concentration of the peptides 10 ng/ml
[5] = relative to hCt, mouse in-vivo test

## calcitonin from salmon [sCt, reference compound]
[1]
  biological activity as percentage activity of the hypocalcemic effect maximally achievable in this test: 21.1%
[2]
  biological activity as percentage activity of the hypocalcemic effect maximally achievable in this test: 51.6%
[3]
  biological activity as percentage activity of the hypocalcemic effect maximally achievable in this test: 63.2%

## cyclo^17,21-[Asp^17,Orn^21]-hCt [Cyclo^17,21-[Asp^17, Om^21]-hCt]
[1]
  biological activity as percentage activity of the hypocalcemic effect maximally achievable in this test: 36.8%
[2]
  biological activity as percentage activity of the hypocalcemic effect maximally achievable in this test: 68.4%
[3]
  biological activity as percentage activity of the hypocalcemic effect maximally achievable in this test: 76.3%
[4]
  biological activity as percentage activity of the hypocalcemic effect maximally achievable in this test: 86.8%
[5]
  activity above the activity of the human calcitonin: 363 fold
  times more active than the original human calcitonin: 360 times
Relative to sCt, mouse in-vivo test
  times more active than calcitonin from salmon (sCt): three

## human calcitonin [hCt, reference compound]
[2]
  biological activity as percentage activity of the hypocalcemic effect maximally achievable in this test: 5.8%
[3]
  biological activity as percentage activity of the hypocalcemic effect maximally achievable in this test: 15.8%
[4]
  biological activity as percentage activity of the hypocalcemic effect maximally achievable in this test: 35.2%
